Laboratory results taken from PMC10795798 (Journal of the American Chemical Society, 2023).

Molecular target: T1, CYP199A4 (Rhodopseudomonas palustris, UniProt Q2IU02)
T1 sequence (Q2IU02 1-410): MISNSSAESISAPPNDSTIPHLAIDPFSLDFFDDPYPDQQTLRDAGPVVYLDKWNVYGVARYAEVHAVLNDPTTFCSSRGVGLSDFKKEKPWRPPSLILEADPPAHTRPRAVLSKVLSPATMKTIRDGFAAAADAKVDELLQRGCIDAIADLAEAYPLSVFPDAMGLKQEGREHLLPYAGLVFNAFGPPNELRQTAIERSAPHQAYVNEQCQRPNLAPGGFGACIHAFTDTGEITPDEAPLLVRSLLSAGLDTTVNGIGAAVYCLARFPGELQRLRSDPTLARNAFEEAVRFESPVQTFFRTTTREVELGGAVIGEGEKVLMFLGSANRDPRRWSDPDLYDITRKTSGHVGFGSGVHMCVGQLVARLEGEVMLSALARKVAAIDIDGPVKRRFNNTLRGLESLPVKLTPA
Experiment: UV-vis spectral titration
Assay type: binding

- Kd: 140 ± 5 µM
Compound: CC(=O)c1ccc(C(=O)O)cc1 [4-acetylbenzoic acid]
